Columns and labels:
Acetylcholinesterase [1] = target: T1, Acetylcholinesterase (Homo sapiens, UniProt P22303); test: Inhibition of human erythrocytes AChE using acetylthiocholine iodide as substrate preincubated for 5 mins followed by substrate addition measured every min for 10 mins by Ellman's method
[2] = Apparent permeability from apical to basolateral side in human Caco2 cells at 10 uM at pH 7.4 measured after 60 mins by HPLC-MS/MS method; format: ADME, cell-based; conditions: Caco-2, pH 7.4
[3] = Apparent permeability from apical to basolateral side in human Caco2 cells assessed as drug recovery at 10 uM at pH 7.4 measured after 60 mins by HPLC-MS/MS method; format: ADME, cell-based; conditions: Caco-2, pH 7.4, read-out: Drug recovery
Acetylcholinesterase [4] = target: T1, Acetylcholinesterase; test: Inhibition of human erythrocytes AChE at 10^-5 M using acetylthiocholine iodide as substrate preincubated for 5 mins followed by substrate addition measured every min for 10 mins by Ellman's method
Acetylcholinesterase [5] = target: T2, Acetylcholinesterase (Bos taurus, UniProt P23795); test: Inhibition of bovine erythrocytes AChE using acetylthiocholine iodide as substrate by Ellman's method
T2 sequence (P23795 whole entry): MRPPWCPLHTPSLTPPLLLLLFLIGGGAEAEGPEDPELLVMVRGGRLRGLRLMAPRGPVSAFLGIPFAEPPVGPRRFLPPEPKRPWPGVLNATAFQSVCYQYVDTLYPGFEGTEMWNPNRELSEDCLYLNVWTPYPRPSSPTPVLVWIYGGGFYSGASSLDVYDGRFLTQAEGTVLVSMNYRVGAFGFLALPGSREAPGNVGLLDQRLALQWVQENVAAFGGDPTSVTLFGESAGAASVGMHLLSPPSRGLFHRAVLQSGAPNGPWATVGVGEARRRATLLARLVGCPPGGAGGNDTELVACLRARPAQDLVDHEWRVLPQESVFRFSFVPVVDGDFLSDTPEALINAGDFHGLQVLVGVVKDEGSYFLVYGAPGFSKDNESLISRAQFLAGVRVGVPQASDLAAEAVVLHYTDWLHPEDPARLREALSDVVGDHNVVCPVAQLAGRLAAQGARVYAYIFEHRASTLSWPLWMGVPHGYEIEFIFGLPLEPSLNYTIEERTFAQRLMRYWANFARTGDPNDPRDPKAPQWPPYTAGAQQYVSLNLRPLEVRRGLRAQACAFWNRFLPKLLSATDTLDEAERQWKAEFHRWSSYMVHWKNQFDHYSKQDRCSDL

Acetylcholinesterase [6] = target: T1, Acetylcholinesterase; test: Displacement of propidium iodide from PAS of human AChE after 6 hrs by fluorescence assay
[7] = target: Amyloid-beta precursor protein (Homo sapiens) (UniProt P05067); test: Inhibition of self-induced aggregation of amyloid beta (1 to 42 residues) (unknown origin) at 10 uM measured every 5 mins by Thioflavin T dye based fluorescence assay relative to control
Sequence of Amyloid-beta precursor protein (Homo sapiens) (P05067 whole entry, the tested form may be a part): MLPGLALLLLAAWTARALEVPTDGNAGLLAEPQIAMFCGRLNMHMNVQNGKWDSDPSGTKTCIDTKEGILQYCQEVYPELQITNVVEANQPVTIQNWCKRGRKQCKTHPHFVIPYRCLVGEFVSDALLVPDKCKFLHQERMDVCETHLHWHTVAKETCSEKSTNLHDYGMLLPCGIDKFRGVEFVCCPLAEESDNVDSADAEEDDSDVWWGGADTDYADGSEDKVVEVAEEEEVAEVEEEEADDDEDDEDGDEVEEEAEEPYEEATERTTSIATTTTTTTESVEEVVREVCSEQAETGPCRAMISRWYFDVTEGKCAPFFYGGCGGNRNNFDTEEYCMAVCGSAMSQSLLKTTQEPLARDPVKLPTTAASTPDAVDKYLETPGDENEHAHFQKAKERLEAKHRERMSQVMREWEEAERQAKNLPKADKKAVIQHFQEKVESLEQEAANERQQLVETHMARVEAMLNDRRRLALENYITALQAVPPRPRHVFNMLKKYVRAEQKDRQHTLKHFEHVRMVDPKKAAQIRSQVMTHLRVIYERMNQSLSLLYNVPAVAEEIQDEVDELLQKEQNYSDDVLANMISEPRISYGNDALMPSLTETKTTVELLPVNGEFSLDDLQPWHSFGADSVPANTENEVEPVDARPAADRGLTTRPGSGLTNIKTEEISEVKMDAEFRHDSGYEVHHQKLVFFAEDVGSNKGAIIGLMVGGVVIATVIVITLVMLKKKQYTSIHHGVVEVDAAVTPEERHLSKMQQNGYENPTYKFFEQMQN

T1 sequence (P22303 whole entry): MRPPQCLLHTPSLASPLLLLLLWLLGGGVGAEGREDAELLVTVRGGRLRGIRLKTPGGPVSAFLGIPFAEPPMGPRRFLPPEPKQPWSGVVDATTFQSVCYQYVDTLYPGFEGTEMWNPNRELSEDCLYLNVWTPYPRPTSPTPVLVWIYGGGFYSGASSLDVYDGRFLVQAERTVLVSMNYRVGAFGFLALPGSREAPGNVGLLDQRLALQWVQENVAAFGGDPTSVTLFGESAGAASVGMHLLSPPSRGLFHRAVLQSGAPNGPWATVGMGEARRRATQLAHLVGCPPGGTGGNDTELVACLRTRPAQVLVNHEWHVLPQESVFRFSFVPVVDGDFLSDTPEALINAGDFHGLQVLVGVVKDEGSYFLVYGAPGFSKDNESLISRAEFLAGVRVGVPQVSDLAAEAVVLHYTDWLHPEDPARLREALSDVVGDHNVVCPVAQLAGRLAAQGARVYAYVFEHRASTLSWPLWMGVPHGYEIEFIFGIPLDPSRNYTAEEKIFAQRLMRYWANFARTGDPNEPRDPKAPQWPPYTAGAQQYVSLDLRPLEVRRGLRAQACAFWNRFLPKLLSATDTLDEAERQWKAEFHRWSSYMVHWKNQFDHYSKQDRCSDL

## CC(C)NC(=O)c1cc2c(OC(=O)N(C)C)cccc2[n+](C)c1
Acetylcholinesterase [1]
  IC50: 58 nM

## CCN(C)C(=O)Oc1cccc2c1cc(C(=O)NC(C)C)c[n+]2C
Acetylcholinesterase [1]
  IC50: > 10000 nM

## CN(C)C(=O)Oc1cccc2c1CC(C(=O)NCCOCCOCCN1C(=O)c3ccccc3C1=O)=CN2C
Acetylcholinesterase [1]
  IC50: > 10000 nM
[2]
  Papp A→B at 1 h, 10 µM: 11.1 ×10⁻⁶ cm/s
[3]
  recovery at 1 h, 10 µM: 91%

## CC[n+]1cc(C(=O)NC)cc2c(OC(=O)N(C)C)cccc21
Acetylcholinesterase [1]
  IC50: 314 nM

## Cc1c(C(=O)N(C)C)cc2c(OC(=O)N(C)C)cccc2[n+]1C
Acetylcholinesterase [1]
  IC50: > 10000 nM

## COC(=O)CNC(=O)c1cc2c(OC(=O)N(C)C)cccc2[n+](C)c1
Acetylcholinesterase [1]
  IC50: 93 nM

## Cc1c(C(=O)N(C)C)c[n+](C)c2cccc(OC(=O)N(C)C)c12
Acetylcholinesterase [1]
  IC50: > 10000 nM

## C[n+]1cc(C(=O)NCCOCCOCCN2C(=O)c3ccccc3C2=O)cc2c(O)cccc21
Acetylcholinesterase [1]
  IC50: > 10000 nM
Acetylcholinesterase [4]
  inhibition: 35%

## CN(C)C(=O)Oc1cccc2c1cc(C(=O)N(C)C)c[n+]2C
Acetylcholinesterase [1]
  IC50: 154 nM

## CNC(=O)c1cc2c(OC(=O)N(C)C)cccc2[n+](Cc2ccccc2)c1
Acetylcholinesterase [1]
  IC50: 1160 nM

## CNC(=O)c1cc2c(OC(=O)N(C)C)cccc2[n+](C)c1
Acetylcholinesterase [1]
  IC50: 77 nM

## CN(C)C(=O)Oc1cccc2c1cc(C(=O)NCCOCCOCCN1C(=O)c3ccccc3C1=O)c[n+]2C
Acetylcholinesterase [1]
  IC50: 6 nM
Acetylcholinesterase [5]
  IC50: 6 nM
Acetylcholinesterase [6]
  Activity: 20%
[7]
  inhibition: 14%

## Cc1c(C(=O)N(C)C)c(C)[n+](C)c2cccc(OC(=O)N(C)C)c12
Acetylcholinesterase [1]
  IC50: > 10000 nM

## CN(C)C(=O)Oc1cccc2c1cc(C(=O)NC1CCCCC1)c[n+]2C
Acetylcholinesterase [1]
  IC50: 20 nM

## COCCNC(=O)c1cc2c(OC(=O)N(C)C)cccc2[n+](C)c1
Acetylcholinesterase [1]
  IC50: 20 nM

## CN(C)C(=O)Oc1cccc2c1cc(C(=O)NCCOCCO)c[n+]2C
Acetylcholinesterase [1]
  IC50: 37 nM

## CC(C)NC(=O)c1cc2c(OC(=O)N3CCCC3)cccc2[n+](C)c1
Acetylcholinesterase [1]
  IC50: > 10000 nM

## CN(C)C(=O)Oc1cccc2c1cc(C(=O)Nc1ccccc1)c[n+]2C
Acetylcholinesterase [1]
  IC50: 30 nM

— ChEMBL document CHEMBL4152292, “Rational design of carbamate-based dual binding site and central AChE inhibitors by a "biooxidisable" prodrug approach: Synthesis, in vitro evaluation and docking studies” (Eur J Med Chem, 2018)
